Patent publication US10179801B2, “Truncated LYP-1 peptides and methods and compositions using truncated LYP-1 peptides” (SANFORD-BURNHAM MEDICAL RESEARCH INSTITUTE, priority 2011, dated 2019)
“Also recorded” adds a separate entry of the source. Ends that are not written are not given here. * marks the point of attachment. Biotin = O=C1N[C@H]2[C@H](CS[C@H]2CCCCC(=O)*)N1

Experiments:
tumor [1] = conditions: CGKRK by itself; cited from earlier work
NRP1 = target: T1, NRP1 (Homo sapiens, UniProt O14786); experiment: Phage binding to DU145 cells with ligand-blocking anti-NRP1; format: cell-based; conditions: 4° C.
T1 construct: endogenous in cells; host or cells: DU145 prostate carcinoma cells
T1 sequence (O14786 22-923): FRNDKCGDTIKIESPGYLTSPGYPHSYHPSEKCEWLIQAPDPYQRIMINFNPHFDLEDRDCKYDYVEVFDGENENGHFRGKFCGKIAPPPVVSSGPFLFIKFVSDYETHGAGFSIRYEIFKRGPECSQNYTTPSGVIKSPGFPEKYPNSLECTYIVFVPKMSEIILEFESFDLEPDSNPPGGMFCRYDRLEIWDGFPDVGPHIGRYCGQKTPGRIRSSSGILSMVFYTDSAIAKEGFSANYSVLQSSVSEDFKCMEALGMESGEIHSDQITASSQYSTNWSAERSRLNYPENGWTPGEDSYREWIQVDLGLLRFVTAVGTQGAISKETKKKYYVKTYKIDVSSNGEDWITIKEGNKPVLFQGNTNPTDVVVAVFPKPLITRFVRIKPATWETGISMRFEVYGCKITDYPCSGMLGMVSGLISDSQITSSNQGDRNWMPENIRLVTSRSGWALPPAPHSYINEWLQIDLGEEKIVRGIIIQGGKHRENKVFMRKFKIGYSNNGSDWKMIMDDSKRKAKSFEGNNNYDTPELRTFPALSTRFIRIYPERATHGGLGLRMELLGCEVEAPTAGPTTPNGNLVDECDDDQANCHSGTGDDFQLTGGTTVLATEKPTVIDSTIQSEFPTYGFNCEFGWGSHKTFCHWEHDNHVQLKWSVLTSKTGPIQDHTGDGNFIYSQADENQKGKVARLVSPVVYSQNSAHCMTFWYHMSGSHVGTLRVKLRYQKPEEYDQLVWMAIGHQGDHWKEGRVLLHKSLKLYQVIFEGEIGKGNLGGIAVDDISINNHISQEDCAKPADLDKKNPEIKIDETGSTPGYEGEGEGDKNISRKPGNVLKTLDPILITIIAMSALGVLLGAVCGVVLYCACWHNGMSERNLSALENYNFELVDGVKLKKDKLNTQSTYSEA
Protocol: To measure phage binding on cells, 2×10^5 suspended cells were incubated with 7×10^8 pfu/mL of T7 phage in DMEM/BSA 1% for 1 h at 4° C. Ligand-blocking antibodies or control goat IgG isotype (10 μg/sample) were added 30 min prior to phage incubation. The cells were washed four times with DMEM/BSA 1%, and lysed with lysogeny broth containing 1% Nonidet P-40 (LB/NP40) before phage titration.
The role of the CendR motif in the LyP-1 peptide was investigated by testing the binding of phage displaying the predicted active CendR fragment CGNKRTR (tLyP-1 for truncated LyP-1; SEQ ID NO:4) and other truncated forms of LyP-1 to cultured tumor cells. DU145 prostate carcinoma cells were used, which express NRP1, but not NRP2 (FIG. 6). As these peptides could have other receptors on the DU145 cells, inhibition of cell binding by a function-blocking anti-NRP1 antibody was used as an indicator of NRP1 dependence of phage binding. […] This is supported by recent modeling studies showing that glycine-containing peptides (G7 (SEQ ID NO:104), G3RG3 (SEQ ID NO:105), and G4RG2 SEQ ID NO:106) were able to dock in NRP1 binding pocket without major deformation of the receptor structure (Haspel et al, 2011).

p32 [2] = target: T2, p32 (Homo sapiens, UniProt Q07021); experiment: ELISA-based saturation assay of FAM-peptides on purified p32; format: binding; conditions: wells coated with 3 μg/mL p32, 37° C. 1 h
T2 sequence (Q07021 74-282): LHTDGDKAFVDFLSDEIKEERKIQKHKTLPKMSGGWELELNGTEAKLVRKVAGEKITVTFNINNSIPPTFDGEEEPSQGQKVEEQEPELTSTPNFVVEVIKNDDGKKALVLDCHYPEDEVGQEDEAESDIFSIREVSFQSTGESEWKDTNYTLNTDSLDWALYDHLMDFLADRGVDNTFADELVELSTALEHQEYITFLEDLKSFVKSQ
Protocol: Binding of FAM-tLyP-1 and FAM-LyP-1 to p32 was measured by an ELISA-based assay. Microtiter wells coated with 3 μg/mL of purified p32 (Fogal et al, 2008) were incubated with increasing concentrations of FAM-peptides at 37° C. for 1 h. After washing with cold PBS added with 0.01% Tween 20 and 0.2 M NaCl, fluorescence was read at 495 nm.
(§1) The MDA-MB-435 cells express the cell surface LyP-1 primary receptor p32 (Fogal et al, 2008). To test whether internalization of tLyP-1 and LyP-1 could occur through this receptor, tLyP-1 capacity to bind p32 was explored. […] Thus, only the intact LyP-1 peptide binds to p32.

p32 [3] = target: T3, p32 (Mus musculus, UniProt O35658); experiment: Affinity chromatography of 4T1 breast tumor extracts on tLyP-1; format: binding; conditions: data not shown
T3 construct: from tissue; host or cells: 4T1 breast tumor extracts (orthotopic tumors in BALB/c mice)
T3 sequence (O35658 71-278): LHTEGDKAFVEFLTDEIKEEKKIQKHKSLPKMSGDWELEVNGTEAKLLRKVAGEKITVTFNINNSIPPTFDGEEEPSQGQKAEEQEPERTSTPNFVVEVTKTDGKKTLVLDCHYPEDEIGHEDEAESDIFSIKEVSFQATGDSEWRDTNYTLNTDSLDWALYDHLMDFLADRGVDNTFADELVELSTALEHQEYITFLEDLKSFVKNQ
Text: as §1

tumor [4] = experiment: Tumor penetration of a compound co-administered with tLyP-1; format: in vivo; conditions: tLyP-1 peptide injected together with CGKRK; confocal microscopy
Text: Thus, tLyP-1 can also induce penetration of a co-administered compound.

4T1 tumors = experiment: FAM-peptide homing in 4T1 tumor bearing mice; format: in vivo, BALB/c mice; conditions: i.v., 1 h circulation
Protocol: To produce 4T1 tumors, BALB/c mice were orthotopically injected into the mammary fat pad with 10^6 cells suspended in 100 μL of PBS. To produce MDA-MB-435 breast tumors, BALB/C athymic nude mice were orthotopically injected into the mammary fat pad with 2×10^6 cells suspended in 100 μL of PBS.
4T1 tumor bearing BALB/c mice and MDA-MB-435 tumor bearing nude mice were intravenously injected with respectively 150 μL and 100 μL of 1 mM FAM-labeled synthetic peptides. After 1 h circulation, mice were perfused and tissues were collected and observed under UV light (Illuma—tool Bright Light System LT-9900) and processed for immunofluorescence analysis.
150 μl of 1 mM FAM-tLyP-1 or control FAM-[…] was intravenously injected into 4T1 tumor bearing mice. The peptides were allowed to circulate for 1 h and tumors and organs were collected and viewed under UV light. […] FAM-tLyP-1 (100 μl of 1 mM) was intravenously injected into MDA-MB-435 tumor bearing mice. The peptide was allowed to circulate for 45 min, and tumor and organs were collected and viewed under UV light. […] Confocal microscope images were made of the tumor and of normal organs after 1 h of FAM-tLyP-1 circulation in 4T1 tumor bearing mice.

PPC1 cells = experiment: Phage binding and internalization into PPC1 cells (confocal microscopy); format: cell-based, human; conditions: 30 min pre-incubation, increasing concentrations, phage 2 h
Protocol: (§2) Cells were grown on collagen I-coated coverslips (BD Biosciences) for 24-72 h. After 4% PFA fixation, cells were stained with antibodies following the same procedure as for tumor sections, and mounted in DAPI-containing mounting media. For phage binding assay, 10^9 pfu of phage in cell culture medium were incubated for 1-2 h. When neutravidin-peptide inhibitors were used, they were added to the cell medium 30 min prior to phage incubation. Neutravidin alone, at the maximum concentration used in the assay, was used as a control. Cells were examined on a Fluoview 500 confocal microscope (Olympus America).
Phage were detected by staining with anti-T7 phage polyclonal antibody. Nuclei were stained with DAPI. […] Cells were co-stained for NRP1 and nuclei were stained with DAPI. […] Non-conjugated neutravidin was used as a control. Nuclei were stained with DAPI. Cells were analyzed by confocal microscopy.

MDA-MB-435 cells = experiment: Phage binding and internalization into MDA-MB-435 cells (confocal microscopy); format: cell-based, human; conditions: 30 min pre-incubation, increasing concentrations, phage 2 h
Protocol: as §2
Cells were co-stained for NRP2 and nuclei were stained with DAPI. […] Non-conjugated neutravidin was used as a control. Nuclei were stained with DAPI.
Having established that tLyP-1, but not LyP-1, binds to NRP1 and NRP2, but both peptides internalize into tumor cells, it was realized that LyP-1 is converted into tLyP-1 and that the two peptides are taken up by cells through the CendR pathway. The effect of an excess of tLyP-1 on LyP-1 internalization was tested. […] After 30 min pre-incubation with increasing concentrations of neutravidin-tLyP-1 peptide, MDA-MB-435 cells were incubated with LyP-1 phage for 2 h. Phage were stained with anti-T7 antibody. Nuclei were stained with DAPI.

CGKRK [tumor-homing peptide]
Exit from blood vessels of peptide alone (tumor [1]): unable to get out of blood vessels by itself

CGNK
Effect of ligand-blocking anti-NRP1 on phage binding to DU145 cells (in words) (NRP1): not enough to confer significant ability to bind to NRP1

CGNKR
Effect of ligand-blocking anti-NRP1 on phage binding to DU145 cells (in words) (NRP1): not enough to confer significant ability to bind to NRP1

CGNKRTR [tLyP-1, truncated form of LyP-1, in which CendR motif is exposed]
Binding to purified p32 (p32 [2]): low binding
Binding of p32 from tumor extract to peptide affinity matrix (p32 [3]): no binding of p32
Tumor penetration of co-injected CGKRK (tumor [4]): enhanced tumor penetration of CGKRK

CGNKRTRG
Effect of ligand-blocking anti-NRP1 on phage binding to DU145 cells (in words) (NRP1): mild reproducible decrease

FAM-ARALPSQRSR: control peptide, fluorescein-labeled ARALPSQRSR (not fully specified; fluorescein label)
Tumor fluorescence / accumulation of FAM-peptide (4T1 tumors): did not accumulate in the tumors; also recorded: absence of fluorescence

oligomeric RPARPAR peptide: tetrameric biotinylated RPARPAR peptide conjugated with neutravidin (Biotin-RPARPAR; not fully specified (C-terminus); also: tetrameric, biotinylated, conjugated with neutravidin)
Inhibition of tLyP-1 phage internalization into PPC1 cells (PPC1 cells): inhibited in a dose-dependent manner
Inhibition of tLyP-1 phage binding and internalization in MDA-MB-435 cells (MDA-MB-435 cells): blocked the binding and internalization
